# Data reported in a melting point compilation (Tetko et al.; mined from patent text by program, amines drawn as free bases though some values may be those of a salt).
row,Compound,melting point
1,COc1ccc(Nc2ccccc2C(=O)N2CCCCC2)cc1,106 to 108 °C
2,Cc1nc(C)c2c(n1)N(Cc1ccc(-c3ccccc3-c3nnn[nH]3)cc1)C(=O)C(O)C2 (stereo not drawn),154 to 156 °C
3,CNC(=O)N1CCc2cc(S(=O)(=O)N(C)OC)ccc21,152 °C
4,COC(C)CNS(=O)(=O)c1cc(C2(O)CCC(=O)N2C)ccc1Cl (stereo not drawn),124 to 126 °C
5,O=c1c2c(Cc3ccccc3)n[nH]c2c2ccncc2n1-c1ccccc1,303 to 307 °C
6,O=CCOc1cccc(C(=O)O)c1,120 to 130 °C
7,COc1ccc(S(=O)(=O)NCC2CCN(C[C@H]3COc4ccc(Cl)cc4O3)CC2)cc1OC,99 to 101 °C
8,"O=C1CC(=O)OC(CCl)C1 (single isomer, unassigned; (-))",98 to 99 °C
9,O=C(c1c(F)cccc1F)N1CN(c2ccccc2)CN(c2ccc(Cl)cc2)C1=O,166 to 168 °C
10,CCC(CC)(CC(=O)Nc1cccc(/C=C/c2nc(C3CCC3)cs2)c1)C(=O)O,170 to 172 °C
11,Cc1cc2ccc(Cl)c(Cl)c2[nH]1,70 to 71 °C
12,O=[N+]([O-])C=C1NCCCN1c1ccc(Cl)nc1,202 °C
13,CN(C)CCCOc1cnc(-c2cccc(CO)c2)nc1,95 to 97 °C
14,CCCN(CCC)C1Cc2cc3c(cc2C1)C(=O)N(Cc1ccc(C#N)cc1)C3 (stereo not drawn),141 to 145 °C
15,O=C(O)CCC(=O)c1ccc(F)c(Br)c1,108 to 110 °C
16,CC(C)(C)c1cc(C(=O)NNC(N)=S)cc(C(C)(C)C)c1O,210 to 211 °C
17,COCNC(=O)NC1CCC(=O)c2sccc21 (stereo not drawn),155 to 158 °C
18,C#CCOc1ccc(NCc2ccc(Cl)nc2)c(C(=O)c2ccc(C(C)C)cc2)c1,96 °C
19,O=S1(=O)NCN(CCF)c2cc(Cl)cc(Cl)c21,180 to 184 °C
20,O=C1c2ccccc2CCC1c1ccccc1 (stereo not drawn),69 °C
21,O=C(O)CCCCCCNC(=O)C(CS)Cc1ccccc1 (stereo not drawn),71 to 73 °C
22,COC(=O)COc1ccc(CC(C)NCC(O)c2cccc(C(F)(F)F)c2)cc1C (stereo not drawn),75 to 79 °C
23,CCCCCCCCNC(=O)n1nc(Oc2c(Cl)cc(C(F)(F)F)cc2Cl)cc1C,43 to 45 °C
24,CCS(=O)(=O)c1cc(C(=O)NCC2CCCN2CC2CC2)c(OC)cc1N (stereo not drawn),181 °C
25,O=[N+]([O-])CS(=O)(=O)c1ccc(O)cc1,93 to 95 °C

row,Compound,melting point
1,CN(C)C=Nc1ccc(-c2c[nH]cn2)cc1,141 to 142 °C
2,NC(=O)CCCC1(c2ccccc2)CC(O)=C(SCc2ccccc2)C(=O)O1 (stereo not drawn),47.5 to 53 °C
3,COC(=O)Cc1cc(NC=O)cc(OC)n1,61 to 63 °C
4,CCOC(=O)c1c(CC)nn(C)c1NC(=O)Cc1ccc(OC)cc1,112 to 113 °C
5,CCOC(=O)CCn1c(-c2ccc(F)cc2)cc2ccccc2c1=O,125 to 126 °C
6,OCCC1(c2ccccn2)CCNC1 (stereo not drawn),50 to 55 °C
7,"Cc1ccc(S(=O)(=O)N2CCN(C(c3ccccc3)c3ccc(Cl)cc3)CC2)cc1 (single isomer, unassigned; (+))",171 °C
8,COC(=O)CCC(=O)c1ccc(-c2ccc(Cl)c(Cl)c2)cc1,120 to 121 °C
9,CNC(=O)c1ccc(N2CCC(OC3CCN(C4CCC4)CC3)CC2)cn1,110 °C
10,CCCCc1[nH]c(Cc2ccccc2)nc(=O)c1Cc1ccc(-c2ccccc2C(=O)O)cc1,219 °C
11,N#Cc1ccc(NC(=O)c2cc(-c3ccc(F)cc3F)ccc2O)cc1,189 to 190 °C
12,O=[N+]([O-])c1ccc(Cl)c2c(Cl)ccnc12,116 to 118 °C
13,COC(=O)c1ccc2c(c1)C(SCCO)c1ccccc1CC2 (stereo not drawn),107 to 109 °C
14,OCc1csc(Nc2ccc(Oc3ccccc3)cn2)n1,130 to 131 °C
15,CC(C)(C)[Si](C)(C)OC1CCCc2cnc3cc(OCc4ccccc4)ccc3c21 (stereo not drawn),123 to 125 °C
16,CNC(=O)Oc1ccc2c(c1)c1c(n2C)CC(CO)C1 (stereo not drawn),137 to 138 °C
17,O=C1Nc2ccccc2N2C(=O)OCC12 (stereo not drawn),230 to 231 °C
18,CC(COC1CCCCO1)C1CCC2C3CC=C4CC(O)CC(O)C4(C)C3CCC12C (stereo not drawn),138 to 141 °C
19,CSc1cc(C)nc(SC)c1NC(=O)CCCCCCSc1nc2c(C)c(Cl)cc(C(C)C)c2o1,129 to 131 °C
20,CCOC(=O)c1cn(C2CC2)c2c(F)c(CCc3cc(Cc4cnc(N)nc4N)cc(OC)c3OC)c(F)cc2c1=O,218 to 220 °C
21,Cc1cc(-c2cc(C(F)F)n3ncc(C(=O)Nc4cccc(S(=O)(=O)N5CCCC5)c4)c3n2)ccc1C(F)(F)F,226 °C
22,Cc1c(-c2ccccc2)oc2c(CN(C)CCCl)cccc2c1=O,118 to 120 °C
23,CCCCCCCCSc1ccc(-c2ncc(CCCCC)cn2)cc1,43 °C
24,CNC(=O)Nc1ccc(Cl)cc1Cl,214 °C
25,COc1c(Cl)cc2c(=O)[nH]c(=O)[nH]c2c1OC,272 to 273 °C

row,Compound,melting point
1,CN(C)c1ccc(C(=O)N(CCN2CCC(C(=O)c3ccc(F)cc3)CC2)c2cccnc2)cc1,147 to 152 °C
2,CC(=O)NCC1CC(c2ccc(F)cc2)=NO1 (stereo not drawn),167 to 168 °C
3,CC(=O)N=C(O)c1cc(C(O)=NCCOC(C)=O)c(C(=O)O)cc1C(=O)O,176 to 178 °C
4,COc1ccc(-c2ccc3c(C(=O)N(C)C)c(-c4ccccc4)ccc3c2)cc1,171 to 173 °C
5,O=C(O)Cc1cc(C(=O)C=Cc2ccc(Cl)cc2Cl)ccc1O,232 °C
6,COc1ccc(C(=O)N[C@H](Cc2ccc(C(F)(F)F)cc2)[C@@H](O)c2ccc(F)cc2)cc1 (racemic),192 to 193 °C
7,Nc1ccccc1N1CCN(CC(O)COc2cccc3c2CCCC3)CC1 (stereo not drawn),103 to 104 °C
8,CC#CCCn1ncc2c(N)c3c(nc21)CN(CCC)C3=O,178 to 180 °C
9,NC(=O)c1ccc(F)c2c1OCC(N(CCCc1c[nH]c3ccc(F)cc13)C1CCC1)C2 (stereo not drawn),132 °C
10,O=c1c(-c2cccc(F)c2)c(CNc2ncnc3[nH]cnc23)oc2ccccc12,211 to 214 °C
11,COc1ccc(-c2nc(S)[nH]c2-c2ccncc2)cc1,280 °C
12,O=C(/C=C/c1ccc(F)c(F)c1)N1CCN(C(=O)c2cc(C(F)(F)F)cc(C(F)(F)F)c2)[C@H](Cc2c[nH]c3ccccc23)C1,214 to 217 °C
13,C=C(C)C(=O)NC1=CC(O)(C(C)=O)C(C(=O)O)C=C1 (stereo not drawn),178 °C
14,CCCc1nc(C)n2nc(S)nc2c1Cc1ccc([N+](=O)[O-])cc1,210 °C
15,CCOC(C)COC1CCNCC1 (stereo not drawn),68 to 70 °C
16,Cc1cc(Nc2nc(-c3ccc(Cl)c(Cl)c3)nc3ccccc23)[nH]n1,274 °C
17,ClCCCOc1ccc(-c2cnc(CSCCOc3ccccc3)o2)cc1,71 to 73 °C
18,C[Si](C)(C)CCOC(=O)CN1C(=O)[C@@H](N2C(=O)c3ccccc3C2=O)CSC1c1ccccc1 (stereo partly drawn),58 to 60 °C
19,CN(CCO)c1ccc(C=O)cc1,72 °C
20,CN1CCN(c2ccc3[nH]c(=O)c(-c4csc(-c5ccncc5)n4)c(N)c3c2)CC1,> 220 °C
21,Clc1cccc2c(C3CCN(CCCOc4cccc5[nH]ccc45)CC3)c[nH]c12,178 to 182 °C
22,COC(=O)c1ccc(S(=O)(=O)N2CC[C@@H](Sc3cc(C(C)(C)C)c(O)c(C(C)(C)C)c3)C2)n1C,83 to 85 °C
23,O=C1NC(=O)C(Cc2ccc(OCCN3CCc4ccccc43)cc2)S1 (stereo not drawn),133 to 136 °C
24,CCOC(=O)c1c(Cl)[nH]c(=O)c(I)c1Oc1cc(C)cc(C)c1,180 to 182 °C
25,CCC(=NN=C(c1ccc(Cl)cc1)c1ccc(OS(C)(=O)=O)cc1)NN=C(c1ccc(Cl)cc1)c1ccc(OS(C)(=O)=O)cc1,184 to 185 °C

row,Compound,melting point
1,NCC(O)COc1cc([N+](=O)[O-])ccc1N (stereo not drawn),141 °C
2,COc1ccc(NN=C(Sc2ccc(OC)c(OC)c2)C(C)=O)cc1,138 to 141 °C
3,C[C@H]1C=CC2=C[C@@H](O)C[C@H](OC(=O)C(C)(C)C)[C@@H]2[C@H]1CC[C@@H]1C[C@@H](O)CC(=O)O1,132 to 133 °C
4,CCNC(=O)Cn1c(=O)c(=O)[nH]c2cc([N+](=O)[O-])c(-n3cccc3)cc21,> 300 °C
5,Cc1cc(OCCNC(=O)C2Cc3ccccc3N2S(=O)(=O)c2ccc(-c3cc(C(F)(F)F)ccc3Cl)cc2)ccc1CC(=O)O (stereo not drawn),110 to 115 °C
6,"CC(NC(=O)c1cccnc1Oc1cccnc1)c1ccc(Cl)s1 (single isomer, unassigned; (+))",83 to 85 °C
7,CC(C)(C)c1cc(C(c2ccc(C(F)(F)F)cc2)N2CCCCC2)c(O)c(C(C)(C)C)c1 (stereo not drawn),150 to 152 °C
8,O=C1NCCSC1Cc1ccc(OCc2ccccc2)cc1 (stereo not drawn),126 to 128 °C
9,Cc1nc(C(=O)Cl)c(CCc2ccccc2)o1,38 to 39 °C
10,COc1cc2cc(C(=O)OC(C)(C)C)c(N)cc2cc1OCCN1CCOCC1,125 to 127 °C
11,CCCCc1ccc(OC(=O)c2ccc(-c3ccc(CC(CC)CCCC)cc3)cc2)c(C#N)c1 (stereo not drawn),37 °C
12,CCOC(=O)c1ccc(NC(C)=O)c(CC(O)CO)c1 (stereo not drawn),114 to 116 °C
13,Cc1c(C)c2c(c(C)c1NC(=O)NC(C)(C)C)C(c1ccc(C(C)C)cc1)CO2 (stereo not drawn),201 to 202 °C
14,CC(C)n1cc(-c2nc(C(N)=O)c(N)nc2-c2ccccc2)ccc1=O,240 to 245 °C
15,O=C1NC(=O)C(Sc2ccc(Br)cc2)S1 (stereo not drawn),115 to 117 °C
16,CC(C)CNc1nc2c(n1C)C(=O)N1CCN=C1N2Cc1ccc(Cl)cc1,185 to 187 °C
17,CC1(C)CCOc2ccc(C(=O)c3ccc(C(=O)O)cc3)cc21,199 °C
18,Cc1ccc(OC2CCN(C(C=O)Nc3ccc4c(c3)OCC(=O)N4)CC2)cc1 (stereo not drawn),223 to 224 °C
19,BrC(Br)(Br)c1ccc2cc(I)ccc2n1,124 to 126 °C
20,O=C(O)COc1cccc2c1CCc1sc(NCCC(c3ccccc3)c3ccccc3)nc1-2,240 to 243 °C
21,COc1ccc2c(-c3cccc(F)c3)noc2c1Cl,149 to 150 °C
22,CC(C)OC(=O)OC1Oc2ccc(OS(=O)(=O)N(C)C)cc2C1(C)C (stereo not drawn),95 to 96 °C
23,O=C(Cc1ccc(Cl)cc1)NC1N=C(c2ccccc2)c2ccccc2NC1=O (stereo not drawn),238 to 240 °C
